Experimental data reported in article PMC6639853, “Deciphering Direct and Indirect Effects of Neurokinin B and GnRH in the Brain-Pituitary Axis of Tilapia” (Frontiers in Endocrinology, 2019).
Several values for one entry are separate records, joined by “and”; a condition that tells them apart may be missing. Equal entries are not always repeated. Where two headings read alike, the source gives them in different places. Starred links: 1 amine or outer side, 2 acyl side, 3 side chain; linkers in the order of their positions; H or OH if unused. Non-standard residues stand in square brackets, D forms with d. Residues, ends and D or L forms follow the SMILES beside them. NMeF = CN[C@@H](Cc1ccccc1)C(=O)O; pGlu = O=C1CC[C@@H](C(=O)O)N1; Suc = O=C(CCC(=O)[*:2])[*:1]

Legend:
[1] = target: T1, zfTac3rb (Danio rerio, UniProt F1R3V0); test: CRE-/SRE-Luc receptor transactivation reporter assay in COS-7 cells, zebrafish Tac3rb; assay type: cell-based; conditions: mean ± SEM
T1 sequence (F1R3V0 1-395): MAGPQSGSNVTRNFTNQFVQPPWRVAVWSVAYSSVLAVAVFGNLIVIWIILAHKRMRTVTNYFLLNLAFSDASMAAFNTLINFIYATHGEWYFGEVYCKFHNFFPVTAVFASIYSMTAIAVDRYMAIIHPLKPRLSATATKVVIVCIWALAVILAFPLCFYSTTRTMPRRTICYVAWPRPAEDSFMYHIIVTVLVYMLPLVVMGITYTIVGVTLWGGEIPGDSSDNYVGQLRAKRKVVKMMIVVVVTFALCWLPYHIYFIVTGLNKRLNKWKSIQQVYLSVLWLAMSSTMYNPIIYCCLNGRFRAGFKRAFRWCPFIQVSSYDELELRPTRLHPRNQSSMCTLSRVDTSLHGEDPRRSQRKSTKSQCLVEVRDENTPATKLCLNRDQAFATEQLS
From the text: (§1) Receptor transactivation assays were generally performed according to Biran et al. ([10]). Briefly, in order to study the signaling pathways of the novel fish NKB and NKF analogs, the entire coding sequence of tiTac3ra (GenBank accession no. KF471674), tiTac3rb (GenBank accession no. KF471675), zfTac3ra (GenBank accession no. JF317292) and zfTac3rb (GenBank accession no. JF317293) were inserted into pcDNA3.1 (Invitrogen). To differentiate between the protein kinase A (PKA) and PKC signal transduction pathways, we used a sensitive luciferase (Luc) reporter gene assay. […] The cDNA clone for human TAC3R was obtained from the Missouri S&T cDNA Resource Center (www.cdna.org). Three micrograms of each construct together with three micrograms of a luciferase reporter plasmid were transiently co-transfected into COS-7 cells. […] EC50 values were calculated from dose response curves by means of computerized non-linear curve fitting on baseline-corrected (control) values using Prism version 6 software (GraphPad).

[2] = tested on: female tilapia pituitary; test: In vivo effect on pituitary gh, fsh and lh mRNA expression (real-time PCR); parameters: species or system Nile tilapia (O. niloticus); conditions: 24 h post IP injection, 100 μg/kg BW
Method: Adult female tilapia (BW 89.29 ± 32.93 g) were injected IP with saline, sGnRH analog ([…]; 10 μg/kg BW; [[…],[…]-Net]-mammalian GnRH; Bachem), tiNKB, tiNKF, or their analogs at 100 μg/kg BW (n = 8 fish per group). The fish were bled from the caudal blood vessels into heparinized syringes 1, 2, 4, 8, and 24 h after injection and blood was centrifuged (3,200 rpm for 30 min at 4°C) to obtain plasma samples, which were stored at -20°C until assayed. This time course is according to standard protocols used previously ([28], [29]) to test the effect of GnRH and other hypothalamic neuropeptides on circulating levels of LH, FSH, and GH in tilapia. Blood samples were collected from the caudal vasculature. Three independent experiments were carried out for the in vivo studies. Pituitaries and three parts of the brain [the olfactory bulbs and telencephalon (front brain), the optic tectum and diencephalon (mid brain), and the cerebellum (hind brain)] were harvested at the end of each in vivo experiment, snap-frozen in liquid nitrogen, and stored at -80°C until extraction. Total RNA was extracted by phenol-chloroform using TRIzol reagent (Invitrogen) and precipitated with ethanol, and 1 μg was used as a template for cDNA synthesis using Verso cDNA kit (Thermo Scientific, Waltham, MA). Real-time PCR analysis was performed according to Biran et al. ([10], [20]). The specificity of the amplification was tested at the end of the PCR by melting-curve analysis and sequencing the PCR products.

[3] = target: T2, tiTac3ra (Oreochromis niloticus, UniProt A0A075QPN8); test: cell-based; conditions: COS-7 cells, mean ± SEM
From the text: (§2) Receptor transactivation assays were generally performed according to Biran et al. ([10]). Briefly, in order to study the signaling pathways of the novel fish NKB and NKF analogs, the entire coding sequence of tiTac3ra (GenBank accession no. KF471674), tiTac3rb (GenBank accession no. KF471675), zfTac3ra (GenBank accession no. JF317292) and zfTac3rb (GenBank accession no. JF317293) were inserted into pcDNA3.1 (Invitrogen). To differentiate between the protein kinase A (PKA) and PKC signal transduction pathways, we used a sensitive luciferase (Luc) reporter gene assay. […] Three micrograms of each construct together with three micrograms of a luciferase reporter plasmid were transiently co-transfected into COS-7 cells. […] EC50 values were calculated from dose response curves by means of computerized non-linear curve fitting on baseline-corrected (control) values using Prism version 6 software (GraphPad).

[4] = target: T3, zfTac3ra (Danio rerio, UniProt H6A6A7); test: CRE-/SRE-Luc receptor transactivation reporter assay in COS-7 cells, zebrafish Tac3ra; assay type: cell-based; conditions: mean ± SEM
T3 sequence (H6A6A7 1-399): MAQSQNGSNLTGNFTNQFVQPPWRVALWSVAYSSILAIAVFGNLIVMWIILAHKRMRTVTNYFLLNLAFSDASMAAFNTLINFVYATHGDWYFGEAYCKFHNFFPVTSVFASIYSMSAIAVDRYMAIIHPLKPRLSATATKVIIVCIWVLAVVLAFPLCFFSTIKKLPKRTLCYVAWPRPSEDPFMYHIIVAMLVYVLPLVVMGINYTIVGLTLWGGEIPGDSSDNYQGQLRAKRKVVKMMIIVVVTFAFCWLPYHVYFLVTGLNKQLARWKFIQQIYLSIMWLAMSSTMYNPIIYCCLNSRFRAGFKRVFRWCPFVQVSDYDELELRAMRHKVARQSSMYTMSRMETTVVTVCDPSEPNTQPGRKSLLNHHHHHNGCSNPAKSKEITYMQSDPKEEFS
From the text: as §1

[5] = target: tiTac3rb (Oreochromis niloticus, UniProt A0A075QUD7); test: cell-based; conditions: COS-7 cells, mean ± SEM
From the text: as §2

[6] = tested on: female tilapia; test: In vivo effect on GH, FSH and LH plasma levels (ELISA) after IP injection; parameters: species or system Nile tilapia (O. niloticus); conditions: peptides/analogs 100 μg/kg BW; for time post-injection at which plasma LH was first increased / duration of increased plasma LH post-injection: sGnRHa 10 μg/kg BW
Method: Adult female tilapia (BW 89.29 ± 32.93 g) were injected IP with saline, sGnRH analog ([…]; 10 μg/kg BW; [[…],[…]-Net]-mammalian GnRH; Bachem), tiNKB, tiNKF, or their analogs at 100 μg/kg BW (n = 8 fish per group). The fish were bled from the caudal blood vessels into heparinized syringes 1, 2, 4, 8, and 24 h after injection and blood was centrifuged (3,200 rpm for 30 min at 4°C) to obtain plasma samples, which were stored at -20°C until assayed. This time course is according to standard protocols used previously ([28], [29]) to test the effect of GnRH and other hypothalamic neuropeptides on circulating levels of LH, FSH, and GH in tilapia. Blood samples were collected from the caudal vasculature. Three independent experiments were carried out for the in vivo studies. Levels of LH, FSH, and GH in the plasma were measured by specific competitive ELISAs developed for tilapia ([30], [31]) based on recombinant ([…] or rtiGH. Primary antisera was produced against […]β, or rtGH ([31]), and […]βα ([28]) or rtGH was used for generating the standard curves.

[7] = target: T4, huTAC3R (NK3R) (Homo sapiens, UniProt P29371); test: CRE-/SRE-Luc receptor transactivation reporter assay in COS-7 cells, human TAC3R; assay type: cell-based; conditions: mean ± SEM
T4 construct: host or cells: COS-7
T4 sequence (P29371 1-465): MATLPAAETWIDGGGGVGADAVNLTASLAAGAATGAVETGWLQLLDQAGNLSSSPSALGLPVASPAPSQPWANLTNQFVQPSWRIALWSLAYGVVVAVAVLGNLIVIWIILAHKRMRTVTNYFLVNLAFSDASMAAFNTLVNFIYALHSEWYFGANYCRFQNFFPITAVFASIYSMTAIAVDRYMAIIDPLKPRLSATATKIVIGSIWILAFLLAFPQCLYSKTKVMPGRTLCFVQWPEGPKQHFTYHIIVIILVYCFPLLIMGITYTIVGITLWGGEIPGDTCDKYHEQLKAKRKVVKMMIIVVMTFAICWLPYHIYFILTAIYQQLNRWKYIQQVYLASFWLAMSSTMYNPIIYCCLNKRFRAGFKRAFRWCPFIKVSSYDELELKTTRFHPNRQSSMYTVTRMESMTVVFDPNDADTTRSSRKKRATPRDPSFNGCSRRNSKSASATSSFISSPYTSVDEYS
From the text: as §1

[8] = target: T2, tiTac3ra; conditions: read-out: EC50 tiTac3ra SRE; SRE-Luc reporter (PKC/Ca2+), COS-7 cells, mean ± SEM
From the text: as §2

[9] = EC50 tiTac3ra CRE, CRE-Luc reporter (PKA/cAMP)
[10] = EC50 tiTac3ra SRE, SRE-Luc reporter (PKC/Ca2+)
[11] = EC50 tiTac3rb CRE, CRE-Luc reporter (PKA/cAMP)
[12] = EC50 tiTac3rb SRE, SRE-Luc reporter (PKC/Ca2+)
[13] = SRE-Luc reporter (PKC/Ca2+), read-out: EC50 huTAC3R (NK3R) SRE

Chain of tiTac3rb (A0A075QUD7 1-361): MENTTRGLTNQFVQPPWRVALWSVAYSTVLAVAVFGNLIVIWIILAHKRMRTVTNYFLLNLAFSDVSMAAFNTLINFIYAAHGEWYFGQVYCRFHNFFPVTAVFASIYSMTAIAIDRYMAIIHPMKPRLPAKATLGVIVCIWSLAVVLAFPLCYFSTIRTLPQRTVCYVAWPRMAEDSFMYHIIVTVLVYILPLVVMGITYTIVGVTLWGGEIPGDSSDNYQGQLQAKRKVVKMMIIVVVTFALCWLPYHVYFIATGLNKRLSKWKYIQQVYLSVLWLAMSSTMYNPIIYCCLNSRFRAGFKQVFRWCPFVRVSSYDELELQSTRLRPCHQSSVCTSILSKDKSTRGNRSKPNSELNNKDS
T2 sequence (A0A075QPN8 1-415): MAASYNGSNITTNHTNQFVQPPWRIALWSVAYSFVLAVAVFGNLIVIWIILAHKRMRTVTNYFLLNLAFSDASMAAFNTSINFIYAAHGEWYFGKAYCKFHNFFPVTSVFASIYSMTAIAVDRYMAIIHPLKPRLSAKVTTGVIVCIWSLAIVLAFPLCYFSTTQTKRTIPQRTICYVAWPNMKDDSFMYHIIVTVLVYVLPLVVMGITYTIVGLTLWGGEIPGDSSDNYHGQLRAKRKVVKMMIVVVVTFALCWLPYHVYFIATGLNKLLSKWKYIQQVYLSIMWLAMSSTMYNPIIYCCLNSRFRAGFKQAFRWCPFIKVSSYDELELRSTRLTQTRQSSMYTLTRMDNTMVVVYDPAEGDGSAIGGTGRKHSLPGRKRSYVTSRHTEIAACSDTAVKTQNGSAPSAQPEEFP

| Compound | EC50 ([1]; CRE-Luc reporter (PKA/cAMP), read-out: EC50 zfTac3rb CRE) [nM] | EC50 ([1]; SRE-Luc reporter (PKC/Ca2+), read-out: EC50 zfTac3rb SRE) [nM] | GH mRNA expression in pituitary relative to control [2] | LHβ mRNA expression in pituitary relative to control [2] | EC50 [3, 9] | EC50 [3, 10] [nM] | EC50 ([4]; CRE-Luc reporter (PKA/cAMP), read-out: EC50 zfTac3ra CRE) | EC50 ([4]; SRE-Luc reporter (PKC/Ca2+), read-out: EC50 zfTac3ra SRE) [nM] | EC50 [5, 11] [nM] | EC50 [5, 12] [nM] | time post-injection at which plasma FSH was first increased [6] [h] | time post-injection at which plasma LH was first increased [6] [h] | EC50 [7, 13] [nM] | EC50 [8] [nM] | FSHβ mRNA expression in pituitary relative to control [2] | time post-injection at which plasma GH was first increased [6] [h] | duration of increased plasma LH post-injection [6] | EC50 ([7]; CRE-Luc reporter (PKA/cAMP), read-out: EC50 huTAC3R (NK3R) CRE) [nM] |
| --- | --- | --- | --- | --- | --- | --- | --- | --- | --- | --- | --- | --- | --- | --- | --- | --- | --- | --- |
| CSCC[C@H](NC(=O)[C@H](CC(C)C)NC(=O)CNC(=O)[C@H](C(C)C)N(C)C(=O)[C@H](Cc1ccccc1)NC(=O)[C@H](CO)NC(=O)[C@H](CC(=O)O)NC(=O)CCC(=O)O)C(N)=O [NKF analog, Succ-Asp-Ser-Phe-N(Me)Val-Gly-Leu-Met-NH2] | 2.69 ± 0.38 | 25.74 ± 0.24 | increased | increased | 2.57 ± 0.33 nM | 1.73 ± 0.46 | 0.47 nM and 0.474 nM | 1.15 ± 0.4 | 160.6 ± 0.42 | 74.89 ± 0.66 | 2 | 1 | 43.2 ± 1.06 | – | – | – | – | – |
| CSCC[C@H](NC(=O)[C@H](CC(C)C)NC(=O)CNC(=O)[C@H](Cc1ccccc1)N(C)C(=O)[C@H](Cc1ccccc1)NC(=O)[C@H](CC(=O)O)NC(=O)CCC(=O)O)C(N)=O [Senktide] (Suc-DF[NMeF]GLM-NH2) | – | – | – | – | 14.1 ± 0.61 nM | – | – | – | 3541 ± 1.47 | 50.16 ± 0.17 | – | – | – | 128 ± 35 | – | – | – | – |
| CC[C@H](C)[C@H](NC(=O)[C@H](Cc1ccccc1)NC(=O)[C@@H](NC(=O)[C@H](CC(=O)O)NC(=O)[C@H](CC(=O)O)NC(=O)[C@H](CCSC)NC(=O)[C@@H]1CCC(=O)N1)[C@@H](C)CC)C(=O)NCC(=O)N[C@@H](CC(C)C)C(=O)N[C@@H](CCSC)C(N)=O [tiNKB] ([pGlu]MDDIFIGLM-NH2) | – | – | increased | increased | 0.8 nM and 0.81 nM | 7.41 ± 0.44 | – | – | 26.5 ± 0.27 | – | 2 | 2 | 0.02 | – | increased | 1 | up to 4 h | 3.38 ± 0.42 |
| [D-Ala^6,Pro^9-Net]-mammalian GnRH [sGnRHa] | – | – | – | – | – | – | – | – | – | – | – | – | – | – | – | – | up to 4 h | – |
